In patent EP0475392B1, “Herbicidal composition” (ISHIHARA SANGYO KAISHA, Ltd., priority 1990, dated 1992):
Counter-ions that a name gives are not always drawn.

Tested on: Digitaria sanguinalis
Test: Test Example 1 (Foliage Treatment Test), herbicidal effect by visual observation
Format: in vivo
Details: foliar application at six-leaf stage, 27 days after treatment
Source text: Upland soil was placed in 1/10,000-are (are (a) = 100 m²) pots and sown with Digitaria sanguinalis. When the plants reached the six-leaf stage, a predetermined amount of each herbicidal composition which had been diluted with 10 ℓ, per are, of water and further admixed with 0.2 % (v/v) of a spreader (Shin Rino®: manufactured by Nihon Nohyaku Co., Ltd.) was foliarly applied on the plants using a small spray gun. 27 days after the foliage treatment application, the herbicidal effect of the herbicidal composition was examined through visual observation according to the following evaluation criteria.

SMILES | Rating (0.25 g/a active ingredient) | Rating (0.5 g/a active ingredient) | Rating (1 g/a active ingredient) | Rating (2.5 g/a active ingredient) | Rating (5 g/a active ingredient)
COc1cc(OC)nc(NC(=O)NS(=O)(=O)c2ncccc2C(F)(F)F)n1 [Compound A, 1-(4,6-dimethoxy-pyrimidin-2-yl)-3-(3-trifluoromethyl-2-pyridylsulfonyl)urea] | 2 (20 to 29) | 3 (30 to 39) | 3 (30 to 39) | – | –
O=C(O)CNCP(=O)(O)O [Isopropylamine salt of Compound B, isopropylamine salt of N-(phosphonomethyl)glycine, reference compound] | – | – | – | 4 (40 to 49) | 6 (60 to 69)
